What was measured:
[1] = test system: SF268-MCAT_Luc_dox-i-shYAPLevy (Clone 13) cells; assay: Proliferation assay (resazurin/AlamarBlue), SF268; assay type: cell-based; conditions: Homo sapiens, SF-268; SF268, 72 hours
[2] = test system: MKN-45/Ubc-luc cells (unspecific inhibition of luciferase expression or activity); assay: Reporter gene assay specificity control (Ubc-Luc), MKN-45; assay type: cell-based; conditions: Homo sapiens; MKN-45/Ubc-luc specificity control, 24 hrs
In short: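 MKN-45 cells stably carrying a ubiquitin C promoter–firefly luciferase construct, treated the day after seeding with eleven 2-fold compound dilutions (0.1% DMSO final) for 24 hrs at 37° C. Luminescence read 5 min after Steady Glo addition; cell-free background subtracted, as a control for nonspecific luciferase inhibition.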

[3] = molecular target: TEAD1-GFP in HEK293A cells (Homo sapiens (Human), UniProt P28347); assay: TEAD1 protein abundance flow cytometry assay in HEK293A; assay type: cell-based; conditions: HEK293A TEAD1-GFP-CHYSEL-mCherry sensor cells, 24 h, GFP signal by flow cytometry
In short: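 HEK293A stably expressing bicistronic TEAD1-GFP-CHYSEL-mCherry treated 24 h at 37° C with 10-point 3-fold series from 10 μM (0.1% DMSO), duplicate. Median GFP of 2,500 single cells by flow cytometry, normalized to parental HEK293A (0%) and DMSO (100%); DC50 from concentration-response curves.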

MKN-45/Ubc-luc cells = assay: Proliferation assay (resazurin/AlamarBlue), MKN-45; assay type: cell-based; conditions: Homo sapiens; MKN-45, 72 hours
In short: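 MKN-45 cells carrying constitutive Ubc-driven luciferase reporter, treated the day after seeding with eleven 2-fold dilutions (0.1% DMSO) for 72 h at 37 °C. Viability by resazurin, referenced to day-0 plate; GI50 from % growth (100 none, 0 stasis, −100 kill) and residual viability at top concentration.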

[4] = test system: YAP-dependent transcription in NCI-H2052 Tet-On shYAP_2371 pLenti6 MCAT_Luc cells; assay: YAP reporter gene activity assay (MCAT-Luc), NCI-H2052; assay type: cell-based; conditions: Homo sapiens, 24 hrs
[5] = molecular target: Avi-humanTEAD4^217-434 / Cy5 labeled humanYAP^60-100 (Homo sapiens (Human), UniProt Q15561); assay: In-vitro biochemical TR-FRET assay (TEAD4/YAP); assay type: binding; conditions: 1 h at room temperature
[6] = test system: NCI-H2052 Tet-On shYAP_2371 pLenti6 MCAT_Luc cells; assay: Proliferation assay (resazurin/AlamarBlue), NCI-H2052; assay type: cell-based; conditions: Homo sapiens; NCI-H2052, 72 hours
[7] = test system: YAP-dependent transcription in SF268-MCAT_Luc_dox-i-shYAPLevy (Clone 13) cells; assay: YAP reporter gene activity assay (MCAT-Luc), SF268; assay type: cell-based; conditions: Homo sapiens, SF-268; SF268 MCAT_Luc, 24 hrs

Sequence of TEAD1-GFP in HEK293A cells (P28347 whole entry): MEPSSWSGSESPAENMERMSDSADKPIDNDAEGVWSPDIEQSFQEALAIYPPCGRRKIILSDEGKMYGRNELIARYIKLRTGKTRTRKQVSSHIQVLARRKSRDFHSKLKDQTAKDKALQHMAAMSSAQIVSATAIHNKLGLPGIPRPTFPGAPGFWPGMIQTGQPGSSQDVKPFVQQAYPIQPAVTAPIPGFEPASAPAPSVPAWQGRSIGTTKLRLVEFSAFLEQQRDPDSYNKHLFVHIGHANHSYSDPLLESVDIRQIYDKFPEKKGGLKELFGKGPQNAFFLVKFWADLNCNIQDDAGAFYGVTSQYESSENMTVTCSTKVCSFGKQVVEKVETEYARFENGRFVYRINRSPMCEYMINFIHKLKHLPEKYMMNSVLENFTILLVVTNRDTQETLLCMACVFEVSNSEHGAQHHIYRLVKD
Sequence of Avi-humanTEAD4^217-434 / Cy5 labeled humanYAP^60-100 (Q15561 217-434): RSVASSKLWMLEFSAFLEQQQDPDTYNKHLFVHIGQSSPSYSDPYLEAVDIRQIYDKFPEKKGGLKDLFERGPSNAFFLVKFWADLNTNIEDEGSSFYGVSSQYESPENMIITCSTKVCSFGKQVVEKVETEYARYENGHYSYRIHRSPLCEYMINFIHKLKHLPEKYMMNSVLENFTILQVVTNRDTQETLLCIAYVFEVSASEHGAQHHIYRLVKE

Row | IC50 [2] [nM] | DC50 [3] [nM] | GI50 (MKN-45/Ubc-luc cells) [nM] | IC50 [4] [nM] | IC50 [5] [nM] | GI50 [6] [nM] | IC50 [7] [nM] | SMILES | GI50 [1] [nM]
1 | > 2000 | < 0.3 | > 2000 | 1 | 3.4 | 3.5 | 0.2 | COc1ccc(C(N)=O)c(-c2c(Cl)c(F)cc3c2[C@H](C)[C@@](CN[C@H]2CC[C@H](C(=O)N4CCC(CC5CCN(C(=O)c6ccc(Cl)c(N7CCC(=O)NC7=O)c6)CC5)CC4)CC2)(c2ccccc2)O3)c1F (atropisomer, axis not shown) [Example 24, 2-((2S,3S,4S)-5-chloro-2-((((1r,4S)-4-(4-((1-(4-chloro-3-(2,4-dioxotetrahydropyrimidin-1(2H)-yl)benzoyl)piperidin-4-yl)methyl)piperidine-1-carbonyl)cyclohexyl)amino)methyl)-6-fluoro-3-methyl-2-phenyl-2,3-dihydrobenzofuran-4-yl)-3-fluoro-4-methoxybenzamide] | 6.2
2 | > 2000 | 0.5 | > 2000 | 3.2 | 2.4 | 8.5 | 0.54 | COc1ccc(C(N)=O)c(-c2c(Cl)c(F)cc3c2[C@H](C)[C@@](CN[C@H]2CC[C@H](C(=O)N4CCC(CC5CCN(C(=O)COc6ccc(N7CCC(=O)NC7=O)cc6)CC5)CC4)CC2)(c2ccccc2)O3)c1F (atropisomer, axis not shown) [Example 25, 2-((2S,3S,4S)-5-chloro-2-((((1r,4S)-4-(4-((1-(2-(4-(2,4-dioxotetrahydropyrimidin-1(2H)-yl)phenoxy)acetyl)piperidin-4-yl)methyl)piperidine-1-carbonyl)cyclohexyl)amino)methyl)-6-fluoro-3-methyl-2-phenyl-2,3-dihydrobenzofuran-4-yl)-3-fluoro-4-methoxybenzamide] | 22
3 | > 2000 | 0.3 | > 2000 | 1.3 | 4 | 2.5 | 0.26 | COc1ccc(C(N)=O)c(-c2c(Cl)c(F)cc3c2[C@H](C)[C@@](CN[C@H]2CC[C@H](C(=O)N4CCC(CC5CCN(C(=O)COc6ccc(N7CCC(=O)NC7=O)c(C)c6)CC5)CC4)CC2)(c2ccccc2)O3)c1F (atropisomer, axis not shown) [Example 26, 2-((2S,3S,4S)-5-chloro-2-((((1r,4S)-4-(4-((1-(2-(4-(2,4-dioxotetrahydropyrimidin-1(2H)-yl)-3-methylphenoxy)acetyl)piperidin-4-yl)methyl)piperidine-1-carbonyl)cyclohexyl)amino)methyl)-6-fluoro-3-methyl-2-phenyl-2,3-dihydrobenzofuran-4-yl)-3-fluoro-4-methoxybenzamide] | 12
4 | > 2000 | 1 | > 2000 | 4 | 7 | 22 | 0.42 | COc1ccc(C(N)=O)c(-c2c(Cl)c(F)cc3c2[C@H](C)[C@@](CN[C@H]2CC[C@H](C(=O)N4CCC(OC5CCN(C(=O)COc6cc(-c7scnc7C)ccc6CNC(=O)[C@@H]6C[C@@H](O)CN6C(=O)[C@@H](NC(=O)C6(F)CC6)C(C)(C)C)CC5)CC4)CC2)(c2ccccc2)O3)c1F (atropisomer, axis not shown) [Example 38, (2S,4R)-N-(2-(2-(4-((1-((1S,4r)-4-((((2S,3S,4S)-4-(6-carbamoyl-2-fluoro-3-methoxyphenyl)-5-chloro-6-fluoro-3-methyl-2-phenyl-2,3-dihydrobenzofuran-2-yl)methyl)amino)cyclohexane-1-carbonyl)piperidin-4-yl)oxy)piperidin-1-yl)-2-oxoethoxy)-4-(4-methylthiazol-5-yl)benzyl)-1-((S)-2-(1-fluorocyclopropane-1-carboxamido)-3,3-dimethylbutanoyl)-4-hydroxypyrrolidine-2-carboxamide] | 24
5 | > 2000 | 9 | > 2000 | 56 | 3 | 170 | 1.8 | COc1ccc(C(N)=O)c(-c2c(Cl)c(F)cc3c2[C@H](C)[C@@](CN[C@H]2CC[C@H](C(=O)N[C@H]4CC[C@H](NC(=O)COc5cc(-c6scnc6C)ccc5CNC(=O)[C@@H]5C[C@@H](O)CN5C(=O)[C@@H](NC(=O)C5(F)CC5)C(C)(C)C)CC4)CC2)(c2ccccc2)O3)c1F (atropisomer, axis not shown) [Example 39, (2S,4R)-N-(2-(2-(((1S,4S)-4-((1S,4R)-4-((((2S,3S,4S)-4-(6-carbamoyl-2-fluoro-3-methoxyphenyl)-5-chloro-6-fluoro-3-methyl-2-phenyl-2,3-dihydrobenzofuran-2-yl)methyl)amino)cyclohexane-1-carboxamido)cyclohexyl)amino)-2-oxoethoxy)-4-(4-methylthiazol-5-yl)benzyl)-1-((S)-2-(1-fluorocyclopropane-1-carboxamido)-3,3-dimethylbutanoyl)-4-hydroxypyrrolidine-2-carboxamide] | 63
6 | > 20000 | 20 | > 20000 | 160 | 4.7 | 410 | 47 | COc1ccc(C(N)=O)c(-c2c(Cl)c(F)cc3c2[C@H](C)[C@@](CN[C@H]2CC[C@H](C(=O)NCCOCCOCCOCCNC(=O)COc4cc(-c5scnc5C)ccc4CNC(=O)[C@@H]4C[C@@H](O)CN4C(=O)[C@@H](NC(=O)C4(F)CC4)C(C)(C)C)CC2)(c2ccccc2)O3)c1F (atropisomer, axis not shown) [Example 40, (2S,4R)-N-(2-((1-((1S,4r)-4-((((2S,3S,4S)-4-(6-carbamoyl-2-fluoro-3-methoxyphenyl)-5-chloro-6-fluoro-3-methyl-2-phenyl-2,3-dihydrobenzofuran-2-yl)methyl)amino)cyclohexyl)-1,15-dioxo-5,8,11-trioxa-2,14-diazahexadecan-16-yl)oxy)-4-(4-methylthiazol-5-yl)benzyl)-1-((S)-2-(1-fluorocyclopropane-1-carboxamido)-3,3-dimethylbutanoyl)-4-hydroxypyrrolidine-2-carboxamide] | 1860
7 | > 2000 | 27 | > 2000 | 79 | 2.3 | 270 | 11 | COc1ccc(C(N)=O)c(-c2c(Cl)c(F)cc3c2[C@H](C)[C@@](CN[C@H]2CC[C@H](C(=O)N4CCC(OC5CCN(C(=O)CCC(=O)N[C@H](C(=O)N6C[C@H](O)C[C@H]6C(=O)N[C@@H](C)c6ccc(-c7scnc7C)cc6)C(C)(C)C)CC5)CC4)CC2)(c2ccccc2)O3)c1F (atropisomer, axis not shown) [Example 41, (2S,4R)-1-((S)-2-(4-(4-((1-((1S,4r)-4-((((2S,3S,4S)-4-(6-carbamoyl-2-fluoro-3-methoxyphenyl)-5-chloro-6-fluoro-3-methyl-2-phenyl-2,3-dihydrobenzofuran-2-yl)methyl)amino)cyclohexane-1-carbonyl)piperidin-4-yl)oxy)piperidin-1-yl)-4-oxobutanamido)-3,3-dimethylbutanoyl)-4-hydroxy-N-((S)-1-(4-(4-methylthiazol-5-yl)phenyl)ethyl)pyrrolidine-2-carboxamide] | 310
